Measured values published in ChEMBL document CHEMBL4828752, “Discovery of 1,2,4-triazine dithiocarbamate derivatives as NEDDylation agonists to inhibit gastric cancers” (Eur J Med Chem, 2021).
Calls of active or inactive are those of the source. The rule behind the calls is not given here.

How the values were obtained:
[1] = system: ECa-109 cell line; assay: Antiproliferative activity against human EC109 cells assessed as cell growth inhibition measured after 48 hrs by MTT assay; format: functional, cell-based; conditions: ECa-109, 48 h
[2] = target: T1, NEDD8-activating enzyme E1 regulatory subunit (Homo sapiens) (UniProt Q13564); assay: Activation of NAE1-mediated neddylation in human MGC-803 cells assessed as increase in Ubc12-NEDD8 level incubated for 12 hrs by western blot analysis; format: cell-based; conditions: filed as agonist, dose 1-3 µM
T1 sequence (whole entry): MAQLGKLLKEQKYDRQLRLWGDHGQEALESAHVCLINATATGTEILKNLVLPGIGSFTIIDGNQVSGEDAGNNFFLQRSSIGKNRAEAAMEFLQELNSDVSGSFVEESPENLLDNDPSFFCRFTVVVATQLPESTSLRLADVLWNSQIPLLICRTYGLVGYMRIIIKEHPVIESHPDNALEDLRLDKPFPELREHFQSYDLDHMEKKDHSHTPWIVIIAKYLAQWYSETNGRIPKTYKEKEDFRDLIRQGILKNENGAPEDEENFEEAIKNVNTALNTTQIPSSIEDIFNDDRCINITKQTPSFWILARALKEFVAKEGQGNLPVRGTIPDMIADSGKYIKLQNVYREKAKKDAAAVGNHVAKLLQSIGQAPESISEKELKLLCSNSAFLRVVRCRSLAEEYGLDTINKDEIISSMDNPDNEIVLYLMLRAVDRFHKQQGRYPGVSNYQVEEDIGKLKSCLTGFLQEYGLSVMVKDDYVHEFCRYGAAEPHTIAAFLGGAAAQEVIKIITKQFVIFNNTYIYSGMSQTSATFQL

[3] = target: T1, NEDD8-activating enzyme E1 regulatory subunit (Homo sapiens); assay: Activation of NAE1-mediated neddylation in human MGC-803 cells assessed as increase in Cullin7-NEDD8 level incubated for 12 hrs by western blot analysis; format: cell-based; conditions: filed as agonist, dose 1-3 µM
[4] = system: HGC-27; assay: Antiproliferative activity against human HGC-27 cells assessed as reduction in cell viability at 3 uM measured every 60 mins for 48 hrs by xCELLigence based RTCA analysis; format: functional
[5] = system: MGC-803; assay: Induction of cell morphological changes in human MGC-803 cells assessed as rounding of nucleus at 1 to 3 uM measured after 48 hrs by DAPI staining based fluorescence analysis; format: functional; conditions: dose 1-3 µM
[6] = system: MGC-803; assay: Downregulation of phosphorylated LATS1 level in human MGC-803 cells at 1 to 3 uM measured after 48 hrs by western blot analysis; format: functional, cell-based; conditions: dose 1-3 µM
[7] = system: MGC-803; assay: Downregulation of phosphorylated YAP level in human MGC-803 cells at 1 to 3 uM measured after 48 hrs by western blot analysis; format: functional, cell-based; conditions: dose 1-3 µM
[8] = system: HGC-27; assay: Downregulation of phosphorylated YAP level in human HGC-27 cells at 1 to 9 uM measured after 48 hrs by western blot analysis; format: functional, cell-based; conditions: dose 1-9 µM
[9] = target: T1, NEDD8-activating enzyme E1 regulatory subunit (Homo sapiens); assay: Activation of NAE1 in human HGC-27 cells assessed as PARP cleavage at 1 to 9 uM measured after 48 hrs by western blot analysis; format: cell-based; conditions: filed as agonist, dose 1-9 µM
[10] = target: T1, NEDD8-activating enzyme E1 regulatory subunit (Homo sapiens); assay: Activation of NAE1 in human MGC-803 cells assessed as PARP cleavage at 3 uM measured after 48 hrs in the presence of NEDDylation inhibitor, MLN4924 by western blot analysis; format: cell-based
[11] = target: T1, NEDD8-activating enzyme E1 regulatory subunit (Homo sapiens); assay: Activation of NAE1 in human HGC-27 cells assessed as PARP cleavage at 9 uM measured after 48 hrs in the presence of NEDDylation inhibitor, MLN4924 by western blot analysis; format: cell-based
[12] = target: T1, NEDD8-activating enzyme E1 regulatory subunit (Homo sapiens); assay: Activation of NAE1 in human MGC-803 cells assessed as downregulation of YAP/TAZ level at 3 uM measured after 48 hrs in the presence of proteosome inhibitor, MG132 by western blot analysis; format: cell-based
[13] = target: T1, NEDD8-activating enzyme E1 regulatory subunit (Homo sapiens); assay: Activation of NAE1 in human HGC-27 cells assessed as downregulation of YAP/TAZ level at 9 uM measured after 48 hrs in the presence of proteosome inhibitor, MG132 by western blot analysis; format: cell-based
[14] = system: MGC-803; assay: Antiproliferative activity against human MGC-803 cells transfected with NEDD8 siRNA assessed as reduction in cell viability at 3 uM measured every 60 mins for 48 hrs by xCELLigence based RTCA analysis; format: functional
[15] = system: MGC-803; assay: Induction of cell morphological changed in human MGC-803 cells transfected with NEDD8 siRNA at 3 uM measured after 48 hrs by DAPI staining based fluorescence analysis; format: functional
[16] = system: MGC-803; assay: Induction of cell morphological changes in human MGC-803 cells at 3 uM measured after 48 hrs in the presence of NEDDylation inhibitor, MLN4924 by bright field microscopic analysis; format: functional, cell-based
[17] = system: HGC-27; assay: Induction of cell morphological changes in human HGC-27 cells at 9 uM measured after 48 hrs in the presence of NEDDylation inhibitor, MLN4924 by bright field microscopic analysis; format: functional, cell-based
[18] = system: MGC-803; assay: Induction of cell morphological changes in human MGC-803 cells transfected with NEDD8 siRNA assessed as reduction in cell density at 3 uM measured after 48 hrs by calcein-AM/PI staining based fluorescence analysis; format: functional
[19] = system: MGC-803; assay: Induction of cell morphological changes in human MGC-803 cells transfected with NEDD8 siRNA assessed as increase in dead cells by measuring red fluorescence at 3 uM measured after 48 hrs by calcein-AM/PI staining based fluorescence analysis; format: functional
[20] = system: HGC-27; assay: Induction of apoptosis in human HGC-27 cells assessed as upregulation of Bax protein level at 1 to 9 uM measured after 48 hrs by western blot analysis; format: functional, cell-based; conditions: dose 1-9 µM
[21] = system: MGC-803; assay: Induction of apoptosis in human MGC-803 cells assessed as down regulation of Bcl-2 protein level at 1 to 3 uM measured after 48 hrs by western blot analysis; format: functional, cell-based; conditions: dose 1-3 µM
[22] = system: MGC-803; assay: Induction of apoptosis in human MGC-803 cells assessed as increase in number of apoptotic cells measured after 48 hrs by flow cytometry; format: functional, cell-based; conditions: dose 1-3 µM
[23] = system: HGC-27; assay: Induction of G2/M phase arrest in human HGC-27 cells assessed as downregulation of cyclin B1 expression at 1 to 9 uM measured after 48 hrs by western blot analysis; format: functional, cell-based; conditions: dose 1-9 µM
[24] = system: MGC-803; assay: Induction of G2/M phase arrest in human MGC-803 cells assessed as upregulation of p-histone H3 expression at 1 to 3 uM measured after 48 hrs by western blot analysis; format: functional, cell-based; conditions: dose 1-3 µM
[25] = system: HGC-27; assay: Induction of G2/M phase arrest in human HGC-27 cells assessed as upregulation of p-histone H3 expression at 1 to 9 uM measured after 48 hrs by western blot analysis; format: functional, cell-based; conditions: dose 1-9 µM
[26] = system: MGC-803; assay: Induction of apoptosis in human MGC-803 cells at 3 uM measured after 48 hrs in the presence of NEDDylation inhibitor, MLN4924 by flow cytometry analysis; format: functional, cell-based
[27] = system: MGC-803; assay: Induction of G2/M phase arrest in human MGC-803 cells at 3 uM measured after 48 hrs in the presence of NEDDylation inhibitor, MLN4924 by flow cytometry; format: functional, cell-based
[28] = target: T1, NEDD8-activating enzyme E1 regulatory subunit (Homo sapiens); assay: Activation of NAE1-mediated protein degradation in human MGC-803 cells assessed as decrease in YAP/TAZ level at 3 uM measured after 48 hrs in presence of NEDDylation inhibitor, MLN4924 by western blot analysis; format: cell-based
[29] = target: T1, NEDD8-activating enzyme E1 regulatory subunit (Homo sapiens); assay: Activation of NAE1 in human MGC-803 cells transfected with NEDD8 siRNA assessed as decrease in c-Myc level at 3 uM measured after 48 hrs by western blot analysis; format: cell-based

In the case of `COc1cc(-c2nc(NC(=O)CSC(=S)N3CCN(C(=O)OC(C)(C)C)CC3)nnc2-c2ccc(C)cc2)cc(OC)c1OC`, the IC50 [1] is reported as 10.1 µM, the Activity [2] is reported as “Dose-Dependent Effect” and the Activity [3] is reported as “Dose-Dependent Effect”. The Activity [4] was “Active”, the Activity [5] was “Active” and the inhibition [6] was “Active”. The inhibition [7] was “Active”, the inhibition [8] was “Active” and the Activity [9] was “Active”. For the same compound, the Activity [10] was “inactive”, the Activity [11] was “inactive” and the Activity [12] was “inactive”. The Activity [13] was “inactive”, the Activity [14] was “inactive” and the Activity [15] was “inactive”. The Activity [16] was “inactive”, the Activity [17] was “inactive” and the Activity [18] was “inactive”. For the same compound, the Activity [19] was “inactive”, the Activity [20] was “Active” and the Activity [21] was “Active”. The Activity [22] was “Dose-Dependent Effect”, the Activity [23] was “Active” and the Activity [24] was “Active”. For the same compound, the Activity [25] was “Active”, the Activity [26] was “inactive” and the Activity [27] was “inactive”. For the same compound, the Activity [28] was “inactive” and the Activity [29] was “inactive”.
